# US20090149518A1, “PHARMACEUTICAL FOR PROTECTION OF MOTOR NERVE IN PATIENT WITH AMYOTROPHIC LATERAL SCLEROSIS” (ONO PHARMACEUTICAL CO., LTD., priority 2005, published 2009)
# Experiments:
# Type in all cases: in vivo, human
# [1] = system: patients with amyotrophic lateral sclerosis; test: Example 2 clinical study: efficacy measurements; settings: 1200 mg once a day oral for 18 months plus standard riluzole; patients less than 14 months from onset of muscular weakness
# Method: (§1) As a clinical study, double blind placebo-controlled parallel group study was carried out on patients with amyotrophic lateral sclerosis, under the following conditions.
# (3) Less than 14 months from onset of muscular weakness;
# (§2) (1) Active group: (2R)-2-propyloctanoic acid 1200 mg (four soft capsules comprising 300 mg of (2R)-2-propyloctanoic acid per capsule);
# (§3) Both Active and Placebo group are administered for 18 months.
# (§4) Riluzole was administered to all subjects in Active and Placebo group in the manner of standard therapy (riluzole 50 mg tablet: one tablet twice a day (before breakfast and dinner), oral daily dose of 100 mg).
# (§5) Evaluation method: Slow vital capacity (SVC) of the subject was measured at the following evaluation times. SVC was measured three times in the sitting position, allowing sufficient recovery time between each manoeuvre. The highest SVC value was recorded.
# Evaluation method: Functional status of the subject was assessed at the following evaluation times using revised amyotrophic lateral sclerosis functional rating scale (ALSFRS-R) shown in above-mentioned Table 1 to 13.
# Evaluation method; Muscle strength of the subject was assessed at the following evaluation times using medical research council scale shown in before-mentioned Table 14. […]
# Evaluation method: Death, bronchotomy, and using noninvasive ventilator were recorded for each subject, if and when it occurs. […]
# [2] = system: patients with amyotrophic lateral sclerosis; test: Example 1 clinical study: respiratory function (slow vital capacity); settings: Active group
# Method: as §1, §2
# (§6) Both Active and Placebo groups are administered for 12 months.
# (§7) Riluzole was administered to all subjects in Active and Placebo groups in the manner of standard therapy (riluzole 50 mg tablet: one tablet twice a day (before breakfast and dinner), oral daily dose of 100 mg).
# as §5
# Evaluation time: 1, 2, 4, 6, 8, 10 and 12 month(s) from the start of administration.
# Suppression of respiratory disability and improvement in survival rate are shown by oral administration of (2R)-2-propyloctanoic acid in the patient within about 14 months after the onset of muscular weakness (Active group: 55 patients, Placebo group: 54 patients. Both Active and Placebo groups are treated with standard riluzole therapy). Hereinafter, each result is described in detail, […]
# [3] = system: ALS patients; test: Studies of the inventors: (2R)-2-propyloctanoic acid used alone in ALS patients; settings: without riluzole
# [4] = system: patients with amyotrophic lateral sclerosis; test: Example 1 clinical study: survival; settings: Active group, 1200 mg once a day oral for 12 months plus standard riluzole; patients within about 14 months after onset of muscular weakness
# Method: As a clinical study, double blind placebo-controlled parallel group study was carried out on patients with amyotrophic lateral sclerosis, under the following conditions. […] (1) Active group: (2R)-2-propyloctanoic acid 1200 mg (four soft capsules comprising 300 mg of (2R)-2-propyloctanoic acid per capsule); Both Active and Placebo groups are administered for 12 months. Riluzole was administered to all subjects in Active and Placebo groups in the manner of standard therapy (riluzole 50 mg tablet: one tablet twice a day (before breakfast and dinner), oral daily dose of 100 mg). Evaluation method: Death was recorded for each subject, if and when it occurs. Evaluation time. Throughout the study. Suppression of respiratory disability and improvement in survival rate are shown by oral administration of (2R)-2-propyloctanoic acid in the patient within about 14 months after the onset of muscular weakness (Active group: 55 patients, Placebo group: 54 patients. Both Active and Placebo groups are treated with standard riluzole therapy). Hereinafter, each result is described in detail, […]
# [5] = system: patients with amyotrophic lateral sclerosis; test: Example 2 clinical study: safety measurements; settings: 1200 mg once a day oral for 18 months plus standard riluzole
# Method: as §1, §2, §3, §4
# Evaluation method: Blood pressure and pulse of the subject were recorded at the following evaluation times.
# Evaluation method: 12 lead ECG was conducted at the following evaluation times. Sinus rhythm, RR interval, PR interval, QRS duration, QT/QTc, and so forth were assessed.
# Evaluation method: Weight of the subject was measured at the following evaluation times.
# Evaluation method: Clinical laboratory test (haematology, biochemistry and urinalysis) of the subject was conducted at the following evaluation times.
# (§8) Evaluation method: Incidence and content (e.g., symptom, causal association, etc.) of clinical adverse events were monitored for each subject.
# [6] = system: patients with amyotrophic lateral sclerosis; test: Example 1 clinical study: clinical adverse events; settings: Active group, 1200 mg once a day oral for 12 months plus standard riluzole
# Method: as §1, §2, §6, §7, §8
# Evaluation time: Throughout the study.
compound,measurement,setting,value
CCCCCC[C@@H](CCC)C(=O)O [(2R)-2-propyloctanoic acid],"effectiveness on suppressing muscular weakness, suppressing respiratory disability, extending survival period, improvement in quality-of-life measures",[1],shows its effectiveness on at least one of
same,reduction of slow vital capacity (% of the predicted value) at 12 months from the start of administration compared to before-administration,"[2]; 1200 mg once a day oral for 12 months plus standard riluzole 100 mg/day, patients within about 14 months after onset of muscular weakness (55 patients)",38.27%
same,patients whose slow vital capacity was lowered to 50% or less of predicted in 12 months,"[2]; 1200 mg once a day oral plus standard riluzole, patients within about 14 months after onset of muscular weakness, result of estimation",about 35 % of patients
same,effect on ALS patients when used alone,[3],cannot exert any satisfactory effect
same,mortality in the dosing period,[4],9 of 55
same,survival rate,[4],84%
same,safety in ALS patient,[5],safe
same,frequency of adverse event,[6],89%
same,frequency of serious adverse event,[6],49%
